Where two headings read alike, the source gives them in different places.
Assays:
[1] = system: KM12 wild type colon carcinoma cell line harboring the TPM3-NTRK1 fusion protein; assay: NTRK wild type cellular assay (CellTiter-Glo growth inhibition); format: cell-based; conditions: for IC50: 72 hr, CellTiter-Glo, read-out: KM12 (WT) IC50
Protocol: (§1) NTRK Wild Type and G595R Mutant Cellular Assays Protocol
(§2) KM12 wild type colon carcinoma cell line harboring the TPM3-NTRK1 fusion protein was obtained from the National Cancer Institute (NCI). This line has been previously shown to be dependent upon the NTRK activity derived from the NTRK fusion protein for growth and survival. […] Cells were first plated in 384-well plates at 1000 cells/well in complete media (10% FBS and 1% pen/strep) and incubated overnight at 37° C. Cells were then dosed with test articles at varying concentrations using the Bravo liquid handling system. […] Each compound was run in duplicate per plate. […] 72 hr after dosing, assay plates were developed using CellTiter-Glo (Promega) and resultant luminescence was read on the Envision plate reader. IC50 determinations were calculated using a 4-parameter curve fitting algorithm

[2] = system: KM12 Cliff (G595R) cell line; assay: NTRK G595R mutant cellular assay (CellTiter-Glo growth inhibition); format: cell-based; conditions: for IC50: 72 hr, CellTiter-Glo
Protocol: as §1, §2

[3] = target: T1, wild type NTRK1 enzyme (Homo sapiens, UniProt P04629); assay: NTRK1 Wild Type Assay at 1 mM ATP; format: biochemical; conditions: 1 mM ATP; read-out: Enz NTRK1 IC50
T1 construct: purchased BPS Bioscience 40280
T1 sequence (P04629 440-796 limits assumed): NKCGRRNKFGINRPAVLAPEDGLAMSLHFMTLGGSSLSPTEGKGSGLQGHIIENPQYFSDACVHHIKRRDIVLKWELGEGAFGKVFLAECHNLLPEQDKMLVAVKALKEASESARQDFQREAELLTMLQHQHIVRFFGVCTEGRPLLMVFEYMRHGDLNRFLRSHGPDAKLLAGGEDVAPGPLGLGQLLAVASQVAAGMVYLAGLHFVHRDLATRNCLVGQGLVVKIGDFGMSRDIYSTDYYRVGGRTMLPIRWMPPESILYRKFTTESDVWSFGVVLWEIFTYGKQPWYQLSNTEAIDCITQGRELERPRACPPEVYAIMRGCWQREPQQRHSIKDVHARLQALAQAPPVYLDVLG
Protocol: NTRK1 Wild Type Assay at 1 mM ATP
The reaction was stopped by the addition of 70 μL of Stop buffer (100 mM HEPES pH 7.5, 0.015% Brij 35, 35 mM EDTA and 0.2% of Coating Reagent 3 (Caliper Lifesciences)). The plate was then read on a Caliper EZReader 2 (protocol settings: −1.7 psi, upstream voltage −500, downstream voltage −3000, post sample sip 35s).

Compound	IC50 [1] [nM]	IC50 [3] [nM]	IC50 ([1]; Homo sapiens, KM12, 72 h) [nM]	GI50 ([1]; Homo sapiens, KM12, wild-type NTRK fusion cells, read-out: NTRK wt Cellular GI50) [nM]	IC50 [2] [nM]	IC50 ([2]; Homo sapiens, KM12, 72 h) [nM]	GI50 ([2]; Homo sapiens, KM12, G595R mutant NTRK fusion cells) [nM]
CN(Cc1cccc(Cl)c1)C(=O)c1n[nH]c2ncnc(N[C@@H]3CC[C@@H](O)[C@H]3O)c12 [Compound 137]	10 to 100	10 to 100			10 to 100		
O=C(NCc1cc(F)ccc1F)c1n[nH]c2ncnc(NC3CCC(O)C3O)c12 (stereo not shown) [Compound 10]	100 to 1000	100 to 1000			> 1000		
O=C(NCc1cc(F)ccc1F)c1n[nH]c2ncnc(NC3CC(O)CC3O)c12 (stereo not shown) [Compound 12]		100 to 1000	100 to 1000			> 1000	
N#Cc1cc(F)cc(CNC(=O)c2n[nH]c3ncnc(N[C@@H]4CC[C@@H](O)[C@H]4O)c23)c1 [Compound 22]		100 to 1000	> 1000			> 1000	
COc1c(F)cc(F)cc1CNC(=O)c1n[nH]c2ncnc(N[C@@H]3COCC[C@H]3O)c12 [Compound 54]		10 to 100	100 to 1000			100 to 1000	
O=C(NCc1cc(F)ccc1Cl)c1n[nH]c2ncnc(N[C@@H]3COCC[C@H]3O)c12 [Compound 37]	100 to 1000	10 to 100			100 to 1000		
CN(Cc1cccnc1Cl)C(=O)c1n[nH]c2ncnc(N[C@@H]3CC[C@@H](O)[C@H]3O)c12 [Compound 138]	100 to 1000	100 to 1000			100 to 1000		
CN(Cc1cc(F)cc(F)c1)C(=O)c1n[nH]c2ncnc(NC3CCC(O)C3O)c12 (stereo not shown) [Compound 33]	10 to 100	10 to 100			10 to 100		
O=C(c1n[nH]c2ncnc(N[C@@H]3COC[C@@H](O)[C@H]3O)c12)N1C[C@@H](F)C[C@@H]1c1cc(F)cc(F)c1 [Compound 197]		< 10	10 to 100			10 to 100	
CC(NC(=O)c1n[nH]c2ncnc(NC3CCC(O)C3O)c12)c1cc(F)ccc1F (stereo not shown) [Compound 35]	100 to 1000	100 to 1000			> 1000		
O=C(c1n[nH]c2ncnc(N[C@@H]3COCC[C@H]3O)c12)N1C[C@@H](F)C[C@@H]1c1cncc(F)c1 [Compound 74]		< 10	10 to 100			10 to 100	
O=C(c1n[nH]c2ncnc(N[C@@H]3CC(F)(F)[C@@H](O)[C@H]3O)c12)N1C[C@@H](F)C[C@@H]1c1cc(F)ccc1F [Compound 227]	< 10	< 10			< 10		
CN(Cc1cc(F)ccc1C(F)(F)F)C(=O)c1n[nH]c2ncnc(NC3COCC(O)C3O)c12 (stereo not shown) [Compound 209]	10 to 100	< 10			10 to 100		
O=C(N[C@H](CO)c1cc(F)ccc1F)c1n[nH]c2ncnc(N[C@@H]3COCC[C@H]3O)c12 [Compound 56]		10 to 100	100 to 1000			100 to 1000	
CN(Cc1cc(F)cn(C)c1=O)C(=O)c1n[nH]c2ncnc(N[C@@H]3CC[C@@H](O)[C@H]3O)c12 [Compound 147]		10 to 100	100 to 1000			100 to 1000	
COc1cc(F)cc(CN(C)C(=O)c2n[nH]c3ncnc(N[C@@H]4CC[C@@H](O)[C@H]4O)c23)c1 [Compound 48]		10 to 100	10 to 100			100 to 1000	
COc1c(F)cc(F)cc1C1CC(F)CN1C(=O)c1n[nH]c2ncnc(NC3CCCC(O)C3O)c12 (stereo not shown) [Compound 234]	< 10	< 10			< 10		
O=C(c1n[nH]c2ncnc(N[C@@H]3CN(C4COC4)C[C@H]3O)c12)N1C[C@@H](F)C[C@@H]1c1cc(F)ccc1F [Compound 229, ((2R,4S)-2-(2,5-difluorophenyl)-4-fluoropyrrolidin-1-yl)(4-(((3R,4R)-4-hydroxy-1-(oxetan-3-yl)pyrrolidin-3-yl)amino)-1H-pyrazolo[3,4-d]pyrimidin-3-yl)methanone]		< 10	< 10			< 10	
O=C(c1n[nH]c2ncnc(N[C@H]3[C@H](O)[C@H](O)[C@@H]4C[C@@H]43)c12)N1C[C@@H](F)C[C@@H]1c1cc(F)ccc1F [Compound 104]		< 10	< 10			< 10	
O=C(c1n[nH]c2ncnc(N[C@H]3[C@H](O)[C@H](O)[C@@H]4C[C@@H]43)c12)N1C[C@@H](F)C[C@@H]1c1cc(F)cnc1F [Compound 216]	< 10	< 10			< 10		
O=C(c1n[nH]c2ncnc(NC3CCOCC3O)c12)N1CC(F)CC1c1cc(F)ccc1OC(F)F (stereo not shown) [Compound 238]	10 to 100				10 to 100		
C[C@@H](Oc1cc(-c2cnn(C3CCNCC3)c2)cnc1N)c1c(Cl)ccc(F)c1Cl [Crizotinib, crizotinib, reference compound]				87			9000

More lines, main results first:

IC50 [1] [nM]	IC50 [3] [nM]	IC50 ([1]; Homo sapiens, KM12, 72 h) [nM]	GI50 ([1]; Homo sapiens, KM12, wild-type NTRK fusion cells, read-out: NTRK wt Cellular GI50) [nM]	Compound	IC50 [2] [nM]	IC50 ([2]; Homo sapiens, KM12, 72 h) [nM]	GI50 ([2]; Homo sapiens, KM12, G595R mutant NTRK fusion cells) [nM]
< 10	< 10			O=C(c1n[nH]c2ncnc(NC3CCOCC3O)c12)N1CC(F)CC1c1cc(F)cc(F)c1F (stereo not shown) [Compound 205]	< 10		
	< 10	< 10		O=C(c1n[nH]c2ncnc(N[C@@H]3COCC[C@H]3O)c12)N1C[C@@H](F)C[C@@H]1c1cc(F)cc(F)c1F [Compound 204]		< 10	
	< 10	< 10		O=C(c1n[nH]c2ncnc(N[C@@H]3COC[C@H]3O)c12)N1C[C@@H](F)C[C@@H]1c1cc(F)ccc1F [Compound 78]		10 to 100	
10 to 100	< 10			O=C(c1n[nH]c2ncnc(NC3CC[C@@H](O)C[C@H]3O)c12)N1C[C@@H](F)C[C@@H]1c1cc(F)ccc1F (stereo partly shown) [Compound 191]	10 to 100		
	< 10	< 10		O=C(c1n[nH]c2ncnc(N[C@@H]3COCC[C@H]3O)c12)N1C[C@@H](F)C[C@@H]1c1cc(F)ccc1F [Compound 92]		< 10	
	< 10	< 10		CS(=O)(=O)C1CC(O)C(Nc2ncnc3[nH]nc(C(=O)N4CC(F)CC4c4cc(F)ccc4F)c23)C1 (stereo not shown) [Compound 116]		< 10	
	< 10	< 10		O=C(c1n[nH]c2ncnc(N[C@@H]3CCOC[C@H]3O)c12)N1C[C@@H](F)C[C@@H]1c1cncc(F)c1 [Compound 73]		10 to 100	
	< 10	< 10		O=C(c1n[nH]c2ncnc(N[C@@H]3CC[C@@H](O)[C@H]3O)c12)N1C[C@@H](F)C[C@@H]1c1cc(F)ccc1OC(F)(F)F [Compound 240]		< 10	
	< 10	< 10		O=C(c1n[nH]c2ncnc(N[C@@H]3CC[C@@H](O)[C@H]3O)c12)N1C[C@@H](F)C[C@@H]1c1cc(F)cc(Cl)c1 [Compound 127]		< 10	
10 to 100	< 10			O=C(c1n[nH]c2ncnc(NC3CCCC(F)(F)[C@H]3O)c12)N1C[C@@H](F)C[C@@H]1c1cc(F)ccc1F (stereo partly shown) [Compound 225]	10 to 100		
< 10	< 10			N#Cc1cc(F)cc(C2CC(F)CN2C(=O)c2n[nH]c3ncnc(NC4COCCC4O)c23)c1 (stereo not shown) [Compound 182]	10 to 100		
	< 10	10 to 100		CN(Cc1cc(F)cnc1Cl)C(=O)c1n[nH]c2ncnc(N[C@H]3[C@H](O)[C@H](O)[C@@H]4C[C@@H]43)c12 [Compound 159]		10 to 100	
	< 10	10 to 100		CN(Cc1cc(F)ccc1Cl)C(=O)c1n[nH]c2ncnc(N[C@@H]3COC[C@@H](O)[C@H]3O)c12 [Compound 162]		10 to 100	

Reference: patent US11046697B2, “Compounds and compositions useful for treating disorders related to NTRK” (BLUEPRINT MEDICINES CORPORATION, priority 2015, dated 2021)
